Measured values from patent publication US20220409595A1, “GLUCOSYLCERAMIDE SYNTHASE INHIBITORS” (GENZYME CORPORATION, priority 2013, published 2022).
Entries after “also recorded” stand apart in the source; their conditions may differ. Read-outs that look alike come from different tables or passages of the source.

Tests used:
[1] = test system: Fabry iPSC-derived cardiomyocytes; assay: GL-3 content of Fabry iPSC-derived cardiomyocytes (beating EBs) by mass spectrometry; type: cell-based, human
Method: GCS452 [(S)-quinuclidin-3-yl (2-(2-(4-fluorophenyl)thiazol-4-yl)propan-2-yl) carbamate], a selective glucosylceramide synthase inhibitor, was tested to evaluate its potential to prevent GL-3 accumulation in Fabry iPSC-derived cardiomyocytes. EBs were treated eighteen days after induction of cardiac differentiation. At this time point, accumulation was low in the FD cardiomyocytes (FIG. 4). The FD and WT cardiomyocytes were treated with 1 μM GCS452 for 15 days.
It was next determined whether the compound could reduce levels of accumulated GL-3 when significant GL-3 accumulation is present at the start of treatment (FIG. 4). […]
In parallel, it was investigated whether agalsidase beta could clear accumulated GL-3 in one month old Fabry cardiomyocytes. EBs were treated with 0.3p g/mL of agalsidase beta for 5 days and GL-3 content was analyzed as described for GCS452. GL-3 vacuoles were not detected in treated Fabry cardiomyocytes using ICC (FIG. 5C). […]
Pellets containing EBs were extracted in a solution of acetonitrile:methanol (1:1). The extracts were directly injected onto a 2.1×100 mm, 1.7 μM BEH Hilic column (Waters), resolved with a Waters Acquity UPLC system, and analyzed for C16, C18, C20, C22, C23, C24, C24:1, C24(OH), and C24:1(OH) GL-3 isoforms and lyso-GL-3 in multiple-reaction monitoring (MRM) and positive-ion mode with an API-4000 mass spectrometer (ABSciex, Framingham, Mass.). […]

[2] = test system: Fabry iPSC-derived cardiomyocytes; assay: Immunocytochemistry of GL-3 and Lamp2 in Fabry iPSC-derived cardiomyocytes; type: cell-based, human
Method: It was next determined whether the compound could reduce levels of accumulated GL-3 when significant GL-3 accumulation is present at the start of treatment (FIG. 4). Twenty eight post-start of differentiation, beating EBs were treated with 1 μM of GCS452 for 15 days. The EBs were dissociated and plated at the end of the treatment, and ICC analysis was performed. […] GL-3 reduction in treated Fabry EBs was confirmed by mass spectrometry. While there was a 13 to 18 fold increase of GL-3 in untreated FD cardiomyocytes compared to WT, GL-3 levels increased by 4.5 to 5.5 fold in treated FD cardiomyocytes after 15 days of treatment with GCS452. This corresponds to a 2.3 to 2.8 fold reduction in accumulated GL-3 as compared to GL-3 levels at the start point (TO) of treatment (FIG. 5B). In parallel, it was investigated whether agalsidase beta could clear accumulated GL-3 in one month old Fabry cardiomyocytes. EBs were treated with 0.3p g/mL of agalsidase beta for 5 days and GL-3 content was analyzed as described for GCS452. GL-3 vacuoles were not detected in treated Fabry cardiomyocytes using ICC (FIG. 5C). […] One month old beating EBs were harvested and dissociated by using the embryoid body dissociation kit (Miltenyi Biotech, Bergisch Gladbach). Dissociated cells were plated on matrigel coated dishes. Five days latter, cells were fixed using 8% de formaldehyde solution (Sigma-Aldrich, St. Louis, Mo.) in DPBS (Gibco, Carlsbad, Calif.) and permeabilized in 0.05% Tween 20 (Sigma Life Science, St. Louis, Mo.) 20 minutes at room temperature. The samples were incubated with the primary antibodies over night at 4° C. Secondary antibodies were applied one hour at room temperature. Primary antibodies used were mouse monoclonal IgG1 directed against—Actinin, at the final dilution 1/1500 (Sigma Life Science, St. Louis, Mo.), rat monoclonal IgM directed against GL-3/CD77, at the final dilution 1/300 (Abcam, Cambridge, US) and mouse monoclonal IgG1 directed against LAMP2, at the final dilution 1/500 (Santa Cruz Biotechnology, Dallas, Tex.). The secondary antibodies were Alexa Fluor 488 goat anti-mouse IgG (Molecular Probes, Carlsbad, Calif.) Alexa Fluor 555 goat anti-mouse IgG (Molecular Probes, Carlsbad, Calif.) and Alexa Fluor 488 goat anti-rat IgG (Molecular Probes, Carlsbad, Calif.). They were used at the final dilution 1/1000.

Fabry patients = settings: cited from earlier work
[3] = test system: K14 mouse model of type 2 Gaucher disease; settings: cited from earlier work
[4] = 1 μM for 15 days, treatment from day 28
[5] = 0.3p g/mL for 5 days, one month old Fabry cardiomyocytes
[6] = 3 μg/mL, one month old Fabry iPSC-derived cardiomyocytes, end of treatment

## CC(C)(NC(=O)O[C@@H]1CN2CCC1CC2)c1csc(-c2ccc(F)cc2)n1 [GCS452, (S)-quinuclidin-3-yl (2-(2-(4-fluorophenyl)thiazol-4-yl)propan-2-yl) carbamate]
[1]; 1 μM for 15 days, treatment from day 18 after induction of cardiac differentiation
  GL-3 levels / accumulation in treated FD cardiomyocytes (prevention): close to the physiological levels of WT untreated cells
[2]; [4]
  GL-3 labeling (ICC): not or was very slightly detectable; also recorded: significant reduction
  Lamp2 signal intensity / number of Lamp2 vacuoles (ICC): reduced; also recorded: concomitant decrease

## agalsidase beta: recombinant α-GalA, enzyme replacement therapy approved for the treatment of Fabry disease
[1]; [5]
  GL-3 clearance in Fabry cardiomyocytes: Complete clearance; also recorded: clearance of GL-3
Fabry patients; Fabry patients, cardiac biopsies, after 5 and 12 months of treatment
  GL-3 deposits / accumulation in cardiomyocytes: not reduced; also recorded: no effect
Fabry patients; Fabry patients
  GL-3 deposits in capillary endothelium / heart microvasculature: effectively clears
Fabry patients; Fabry patients, listed as Agalsidase beta
  GL-3 deposits in capillary endothelium / heart microvasculature: consistently clear
Fabry patients; treated Fabry patients
  left ventricular mass: Modest reductions
[2]; [6]
  GL-3 content (ICC), FIG. 5C legend: not or was very slightly detectable
  number of Lamp2 vacuoles and intensity of the signal (ICC), FIG. 5C legend: reduced
[2]; [5]
  GL-3 vacuoles (ICC): not detected

## CC(C)(NC(=O)OC1CN2CCC1CC2)c1cccc(-c2ccc(F)cc2)c1 (centres unmarked) [Gz161, Quinuclidin-3-yl (2-(4′-fluoro-[1,1′-biphenyl]-3-yl)propan-2-yl)carbamate]
[3]
  brain neuropathology: reduced
  lifespan: extended
[3]; see Examples 122-125 of WO2012/129084
  brain GluCer and GluSph: reduce
